Where two headings read alike, the source gives them in different places.
What was measured:
[1] = tested on: synthesis of intracellular triacylglycerols; experiment: Inhibitory activity on the synthesis of intracellular triacylglycerols, [14C] oleic acid incorporation in CHO-K1 cells; assay type: cell-based, Chinese hamster; settings: [1-14C] oleic acid, 6 hours incubation, read-out: IC50, inhibition of formation of [14C] triacylglycerols
Protocol: The inhibitory activity on the synthesis of intracellular triacylglycerols of substance FKI-3864 according to the invention was tested in the manner described below.
Chinese hamster ovary cells (CHO-K1 cells) adjusted to 5.0×10^5 cells/mL with HAMs F12 medium (10% FBS, containing Penicillin/Streptomycin) were distributed on a 48-well plate in aliquots of 250 μL.
Then, after the cells were incubated at 37° C. for 12 hours in a 5% carbon dioxide gas incubator to adhere the cells, substance FKI-3864 (2.5 μL as a methanol solution) and [1−^14C] oleic acid (5 μL, 1.85 kBq, 1 nmol) were added, and incubation was continued for additional 6 hours.
The supernatant of the culture was removed, and after 0.1% SDS-Tris/HCl (pH 7.5, 120 μL) was added for lysis of the cells, neutral fat in the cells was extracted by the Bligh & Dyer method. After the extract was concentrated, it was spotted on a TLC (silica gel plate, Merck, 0.5 mm in thickness) and developed with a solvent of hexane/diethyl ether/acetic acid (70:30:1, v/v/v), and the quantity of isolated [^14C] triacylglycerols was determined with BAS 2000 (Fuji Film).
Using the same manner as in Test 1, the inhibitory activities on the synthesis of intracellular triacylglycerols of substances FKI-3864-1 and FKI-3864-2 were measured. […] In addition, the activities of mixtures in which substances FKI-3864-1 and FKI-3864-2 were mixed at different ratios are shown in Table 2.

Solubility in solvents = assay type: physicochemical
Source text: (7) Solubility in solvents: Soluble in methanol, chloroform, and ethyl acetate; insoluble in water.

IC50 [1]	Solubility in solvents: methanol, chloroform, and ethyl acetate (Solubility in solvents)	Solubility in solvents: water (Solubility in solvents)	IC50 ([1]; Cricetulus griseus, CHO-K1, 6 h)	SMILES
≥ 12000 nM	Soluble	insoluble	–	CCCCCC(O)CC(O)CC1Cc2cc3cc(OC)c(-c4c(OC)cc5cc6c(c(O)c5c4O)C(=O)OC(CC(O)CC(O)CCCCC)C6)c(O)c3c(O)c2C(=O)O1 (single isomer, unassigned) [FKI-3864-1]
540 nM	Soluble	insoluble	–	CCCCCC(O)CC(O)CC1Cc2cc3cc(OC)c(-c4c(OC)cc5cc6c(c(O)c5c4O)C(=O)OC(CC(O)CC(O)CCCCC)C6)c(O)c3c(O)c2C(=O)O1 (single isomer, unassigned) [FKI-3864-2]
–	Soluble	insoluble	93 nM	CCCCCC(O)CC(O)CC1Cc2cc3cc(OC)c(-c4c(OC)cc5cc6c(c(O)c5c4O)C(=O)OC(CC(O)CC(O)CCCCC)C6)c(O)c3c(O)c2C(=O)O1 (stereo not drawn) [FKI-3864]

— patent US8378125B2, “Substance FKI-3864 and method for preparation thereof” (School Juridical Person Kitasato Institute, priority 2008, dated 2013)
